Source: PMC10487843, “Evaluation of Anticancer and Anti-Inflammatory Activities of Some Synthetic Rearranged Abietanes” (International Journal of Molecular Sciences, 2023)
In brackets after ≈: the same amount, converted by molar mass. Read-outs that look alike come from different tables or passages of the source.

Key:
[1] = tested on: human colon adenocarcinoma (HT29); assay: MTT cell viability assay, HT29; type: cell-based; settings: Homo sapiens, HT-29, 72 h; for IC80: 80% growth inhibition; for IC50: read-out: IC50
Description: (§1) In this study, we employed the MTT (3-(4,5-dimethyl thiazol-2-yl)-2,5-diphenyltetrazolium bromide) colorimetric assay to evaluate the cytotoxic activity of selected abietanes (compounds 5, 7, 13, 17, and 19) against three tumor cell lines: human colon adenocarcinoma (HT29), human hepatocarcinoma (HepG2), and murine melanoma (B16–F10). The MTT assay relied on the conversion of MTT to formazan by viable cells, with the formazan concentration proportional to the number of viable cells. The concentrations required for 50 and 80% growth inhibition (IC50 and IC80) were determined for each compound.
(§2) The human colorectal adenocarcinoma cell line HT29 (ECACC no. 9172201; ATCC no. HTB-38), the human hepatocarcinoma cell line HepG2 (ECACC no. 85011430), the mouse melanoma cells B16–F10 (ATCC no. CRL-6475), and the murine monocyte/macrophage like RAW 264.7 cell line (ATCC no, TIB-71) were obtained from the cell bank of the University of Granada, Spain. The tumor cell lines were cultured in DMEM (Dulbecco’s modified Eagle’s medium) supplemented with 2 mM glutamine, 10% heat-inactivated FCS (fetal calf serum), and 50 μg/mL of gentamicin (for all cancer cell lines). The RAW 264.7 cell line was cultured in RPMI1640 medium, supplemented with 2 mM glutamine, 10% heat-inactivated FCS, and 50 μg/mL of gentamicin. All cell lines were incubated at 37 °C, in an atmosphere of 5% CO2 and 95% humidity. The culture media were changed every 48 h, and the confluent cultures were separated with a trypsin solution (0.25% EDTA). In all experiments, monolayer cells were grown to 80–90% confluence in sterile cell culture flasks.
(§3) The effects of the compounds on the cell viability were established using the MTT method (Sigma, St. Louis, MO, USA). The cytotoxicity of the compounds was assessed by measuring the absorbance of MTT dye staining of metabolically competent cells. The cells were cultivated in 96-well plates at 6.0 × 10^3 cells/mL for the HT29 and RAW 264.7 cell lines, at 5.0 × 10^3 cells/mL for B16–F10 cells, and 15.0 × 10^3 cells/mL for the HepG2 cell line, with a final volume of 200 μL per well being incubated with the different products (0–100 μg/mL). After 72 h, 100 μL of MTT solution (0.5 mg/mL) in 50% of PBS and 50% of the medium was added to each well. Following incubation for 1.5 h, formazan was resuspended in 100 μL of DMSO, and each concentration was tested in triplicate. The cell viability relative to the untreated control cells was determined by measuring the absorbance at 570 nm using an ELISA plate reader (Tecan Sunrise MR20–301, TECAN, Grödig, Austria).

[2] = tested on: human hepatocarcinoma (HepG2); assay: MTT cell viability assay, HepG2; type: cell-based; settings: Homo sapiens; for IC80: 72 h, 80% growth inhibition; for IC50: HepG2, 72 h, read-out: IC50
Description: as §1, §2, §3

[3] = tested on: murine melanoma (B16–F10); assay: MTT cell viability assay, B16-F10; type: cell-based; settings: Mus musculus, 72 h; for IC80: 80% growth inhibition
Description: as §1, §2, §3

[4] = RAW 264.7 cell viability (MTT); type: cell-based, murine; settings: mouse
Experimental: To evaluate the cytotoxic effects of the synthesized abietanes (5, 7, 13, 17, and 19) on RAW 264.7 monocyte/macrophage murine cells and to establish sub-cytotoxic concentrations for anti-inflammatory testing, we conducted cell viability assays using the MTT method. Each compound was tested at increasing concentration levels (0–100 μg/mL), and the IC50 values were determined by interpolation in the sigmoidal cytotoxicity curves (Figure 8). […] Additionally, sub-cytotoxic concentrations corresponding to ¾ IC50, ½ IC50, and ¼ IC50 were determined and selected for subsequent anti-inflammatory assays, ensuring that the observed effects were specifically attributed to the anti-inflammatory properties of the compounds rather than cytotoxicity. The human colorectal adenocarcinoma cell line HT29 (ECACC no. 9172201; ATCC no. HTB-38), the human hepatocarcinoma cell line HepG2 (ECACC no. 85011430), the mouse melanoma cells B16–F10 (ATCC no. CRL-6475), and the murine monocyte/macrophage like RAW 264.7 cell line (ATCC no, TIB-71) were obtained from the cell bank of the University of Granada, Spain. The tumor cell lines were cultured in DMEM (Dulbecco’s modified Eagle’s medium) supplemented with 2 mM glutamine, 10% heat-inactivated FCS (fetal calf serum), and 50 μg/mL of gentamicin (for all cancer cell lines). The RAW 264.7 cell line was cultured in RPMI1640 medium, supplemented with 2 mM glutamine, 10% heat-inactivated FCS, and 50 μg/mL of gentamicin. All cell lines were incubated at 37 °C, in an atmosphere of 5% CO2 and 95% humidity. The culture media were changed every 48 h, and the confluent cultures were separated with a trypsin solution (0.25% EDTA). In all experiments, monolayer cells were grown to 80–90% confluence in sterile cell culture flasks. The effects of the compounds on the cell viability were established using the MTT method (Sigma, St. Louis, MO, USA). The cytotoxicity of the compounds was assessed by measuring the absorbance of MTT dye staining of metabolically competent cells. The cells were cultivated in 96-well plates at 6.0 × 10^3 cells/mL for the HT29 and RAW 264.7 cell lines, at 5.0 × 10^3 cells/mL for B16–F10 cells, and 15.0 × 10^3 cells/mL for the HepG2 cell line, with a final volume of 200 μL per well being incubated with the different products (0–100 μg/mL). After 72 h, 100 μL of MTT solution (0.5 mg/mL) in 50% of PBS and 50% of the medium was added to each well. Following incubation for 1.5 h, formazan was resuspended in 100 μL of DMSO, and each concentration was tested in triplicate. The cell viability relative to the untreated control cells was determined by measuring the absorbance at 570 nm using an ELISA plate reader (Tecan Sunrise MR20–301, TECAN, Grödig, Austria).

[5] = tested on: NO release in LPS-stimulated RAW 264.7 macrophage cells; assay: Inhibition of nitric oxide production (Griess nitrite assay) in LPS-activated RAW 264.7 macrophages; type: cell-based, murine; settings: LPS-stimulated RAW 264.7, 48 h; for NO inhibition: ¾ IC50 concentration; for IC50: Mus musculus, RAW264.7
Experimental: To evaluate the anti-inflammatory activity of the rearranged abietanes (5, 7, 17, and 19) along with their precursor 13, we conducted experiments on RAW 264.7 macrophage cells, a well-known model for screening anti-inflammatory compounds. The macrophages were stimulated with LPS to induce the maximum release of nitric oxide (NO) during the inflammatory response. Subsequently, the different compounds were incubated with the cells at sub-cytotoxic concentrations for 48 h (Figure 9). Next, we determined the concentration of nitrites in the culture medium, which was proportional to the amount of NO release.
Nitrite production was analyzed using the Griess reaction method. The concentration of nitrite was used as an indication of nitric oxide (NO) production. RAW 264.7 cells were seeded at 6 × 10^4 cells/well in 24-well cell culture plates, supplemented with 10 μg/mL of lipopolysaccharide (LPS). […] The Griess reaction was conducted by mixing 150 μL of supernatant test samples or sodium nitrite standard (0–120 μM) with 25 μL of Griess reagent A (0.1% n-(1-naphthyl) ethylenediamine dihydrochloride) and 25 μL of Griess reagent B (1% sulfanilamide in 5% of phosphoric acid) in a 96-well plate. The mixture was incubated at room temperature for 15 min, after which the absorbance was measured at 540 nm using an ELISA plate reader (Tecan Sunrise MR20–301, TECAN, Grödig, Austria). To determine the concentration of nitrite in each sample supernatant, the absorbance was referenced to the nitrite standard curve. To determine the percentage of NO production, the increase between the negative control (untreated cells) and the positive control (cells only with 10 μg/mL of LPS) was assigned 100%.

[6] = tested on: P388 leukemia cells; design: method as in doi:10.1076/phbi.37.2.148.6082; settings: cited from earlier work
[7] = tested on: human leukemia lymphoblastic NALM-6; design: method as in PMID 16989306; settings: cited from earlier work
[8] = tested on: promyelocytic HL-60 cells; design: method as in PMID 16989306; settings: cited from earlier work
[9] = tested on: human carcinoma KB cells; design: method as in doi:10.1076/phbi.37.1.17.6321; settings: cited from earlier work
[10] = design: method as in PMID 29772301; settings: orthoquinones versus para-quinones; cell lines not given; read-out: cytotoxic activity; cited from earlier work
[11] = RAW 264.7 monocyte/macrophage cells, RAW 264.7, MTT, 0–100 μg/mL, read-out: IC50 (cytotoxicity)

| IC50 [1] | IC50 [2] | IC50 [3] | Compound | IC80 [1] | IC80 [2] | IC80 [3] | IC50 at 72 h [4, 11] | NO inhibition [5] | IC50 [5] | cytotoxicity [6] | IC50 at 72 h [4] | IC50 [7] | IC50 [8] | cytotoxic effect [9] | IC50 [10] |
| --- | --- | --- | --- | --- | --- | --- | --- | --- | --- | --- | --- | --- | --- | --- | --- |
| 7.82 ± 0.17 µg/mL (≈ 26.4 µM) | 21.2 ± 2.26 µg/mL (≈ 71.4 µM) | 6.89 ± 0.37 µg/mL (≈ 23.2 µM) | CC(C)=CCCc1c(C)ccc2c1C(=O)C(=O)C(C(C)C)=C2 [Compound 7, saprorthoquinone] | 10.6 ± 0.28 µg/mL (≈ 35.8 µM) | 29.12 ± 0.21 µg/mL (≈ 98.2 µM) | 8.02 ± 0.52 µg/mL (≈ 27.1 µM) | 2.81 ± 0.45 µg/mL (≈ 9.48 µM) | 100% | 1.3 ± 0.08 µg/mL (≈ 4.39 µM) | strong cytotoxicity |  |  |  |  |  |
| 60.52 ± 0.28 µg/mL (≈ 204 µM) | 76.3 ± 2.14 µg/mL (≈ 257 µM) | 6.42 ± 0.35 µg/mL (≈ 21.7 µM) | CC(C)C1=CC2=C(C(=O)C1=O)C1=CCCC(C)(C)[C@@]1(C)C=C2 [Compound 19, viridoquinone] | 74.7 ± 1.53 µg/mL (≈ 252 µM) | 101 ± 3.47 µg/mL (≈ 339 µM) | 9.14 ± 0.38 µg/mL (≈ 30.8 µM) | 9.29 ± 0.35 µg/mL (≈ 31.3 µM) | 100% | 7.21 ± 0.9 µg/mL (≈ 24.3 µM) |  |  |  |  |  |  |
|  |  |  | C=C(C)CCCc1c(C)ccc2c1C(=O)C(=O)C(C(C)C)=C2 [aethiopinone] |  |  |  |  |  |  |  |  | 0.6 µg/mL (≈ 2.02 µM) | 4.8 µg/mL (≈ 16.2 µM) | potent cytotoxic effect |  |
|  |  |  | aegyptinone A |  |  |  |  |  |  |  |  |  |  |  | 2.11 to 8.19 µM |
|  |  |  | tebesinone B |  |  |  |  |  |  |  |  |  |  |  | 5.47 to 10.3 µM |

| Compound | IC50 [1] | IC50 [2] | IC50 [3] | IC80 [1] | IC80 [2] | IC80 [3] | IC50 at 72 h [4, 11] | NO inhibition [5] | IC50 [5] | cytotoxicity [6] | IC50 at 72 h [4] | IC50 [7] | IC50 [8] | cytotoxic effect [9] | IC50 [10] |
| --- | --- | --- | --- | --- | --- | --- | --- | --- | --- | --- | --- | --- | --- | --- | --- |
| CC(C)c1cc2c(c(O)c1O)C1=CC(=O)CC(C)(C)[C@@]1(C)C=C2 [Compound 17, pygmaeocin C] | 15.3 ± 0.71 µg/mL (≈ 48.9 µM) | 38.8 ± 1.55 µg/mL (≈ 124 µM) | 10.1 ± 1.81 µg/mL (≈ 32.4 µM) | 24.4 ± 2.65 µg/mL (≈ 78 µM) | 73.5 ± 2.06 µg/mL (≈ 235 µM) | 26.6 ± 4.82 µg/mL (≈ 85.2 µM) |  | 91% | 1.73 ± 0.04 µg/mL (≈ 5.54 µM) |  | 6.27 ± 0.94 µg/mL (≈ 20.1 µM) |  |  |  |  |
